The source of these data is patent US20260209260A1, “VECTORIZED NHC IRIDIUM(III) COMPLEXES AND USE THEREOF IN PHOTODYNAMIC THERAPY AND/OR DIAGNOSTIC” (CENTRE NATIONAL DE LA RECHERCHE SCIENTIFIQUE, priority 2022, published 2026).

In one series the test system is T24 bladder cancer cells. The experiment in a line: Cell viability assay (MTT), dark and blue light. In kind it is cell-based, Human. In outline:
(§1)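 Viability determined by MTT assay (A570) after 72 h treatment in 0.1% DMSO, with or without a 10 min irradiation at 8 h. Data from at least three independent experiments run in triplicate.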

In series [1] the test system is ASPC-1 pancreas cancer cells. The experiment in a line: Cell viability assay (MTT), dark and blue light. It counts as cell-based, Human. The gist of the method: as §1
A further series has as its system A549 lung cancer cells. The experiment in a line: Cell viability assay (MTT), dark and blue light. In kind it is cell-based, Human. The gist of the method:
as §1

In series [2] the test system is MiaPaCa2 pancreas cancer cells. The experiment in a line: Cell viability assay (MTT), dark and blue light. It counts as cell-based, Human. In outline: as §1
Series [3] is described as follows: Luminescence emission spectra and quantum yield. It counts as physicochemical. The settings on record: room temperature; reference POPOP in hexane or rhodamine B in ethanol. The gist of the method:
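Spectrofluorometric fluorescence/phosphorescence emission spectra of the iridium(III) complexes recorded in CH2Cl2 at room temperature. Quantum yields by the Demas–Crosby relative method on solutions at RT, from integrated emission band areas versus a reference standard of known yield, corrected for solvent refractive index.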

Series [4] in a line: UV/Vis absorption spectra. The settings on record: room temperature, air-saturated CH2Cl2 or CH2Cl2/MeOH (1:1), 50 μM; ε in brackets, sh = shoulder. It counts as physicochemical. As to the method: UV/Vis absorption spectra were recorded at RT on solutions contained in quartz cuvettes (optical pathlength 1 cm, Hellma®) with a PerkinElmer® UV/VIS/NIR spectrophotometer Lambda 950 and a PerkinElmer® detector UV/VIS/NIR Accessory 2D Detector Module.

For series [5], the system named is cancer cells (all tumor cell lines tested). The series can be described thus: Cell viability assay (MTT), summary over the cancer cell lines tested. In kind it is cell-based, Human. The settings on record: dark. The protocol:
Cells were grown in humidified incubators at 37° C. in 5% CO2. Murine MC3T3 osteoblast and NIH-3T3 fibroblast cells-used as non-tumor cell models-were cultured in a-MEM medium and DMEM medium supplemented with 10% fetal bovine serum (FBS) and 1% Penicillin/Streptomycin (P/S) antibiotics, respectively. Human T24 bladder, MGHU3 bladder, Scaber bladder, A549 lung, MCF7 breast, MiaPaCa2 pancreas cancer cells were cultured in DMEM medium supplemented with 10% FBS and 1% P/S antibiotics. […] Human Hela cervix and HepG2 liver cancer cells were cultured EMEM medium supplemented with 10% FBS and 1% P/S antibiotics.
MTT reagent (3-(4,5-dimethylthiazol-2-yl)-2,5-diphenyltetrazolium bromide) was used to determine cell death as originally described by Mosmann. Briefly, cells were seeded from 5,000 to 10,000 cells/well in 24-well plates (1 mL) depending on the cell type and allowed to attach overnight. The complexes were prepared in DMSO. The concentration of the complexes was calculated based on the elemental composition of the complexes determined by the elemental analyses. All cell viability experiments were carried out with a fixed concentration of 0.1% (v/v) DMSO. After 72 h of treatment, cells were incubated at 37° C. and 5% CO2 with 25 μL of MTT solution (5 mg/ml; Sigma-Aldrich) in 24-well plates for 3 to 4 h. After solubilization with 500 μL of DMSO, formazan was quantified spectrophotometrically with a microplate reader at 570 nm absorbance (ClarioSTAR, BMG LabTech). […] All the results were calculated from data obtained in at least three independent experiments performed in triplicate.
Two sets of experiments were conducted in parallel for each complex to be studied:
1. The cells were incubated with the different complexes (in the dark) for 72 h.
2. The cells were incubated for 8 h with the different complexes (in the dark), then irradiated for 10 min, followed by an incubation in the dark up to 72 h.

Series [6] has as its system MC3T3 osteoblast cells (non-tumor). The experiment in a line: Cell viability assay (MTT), dark and blue light. It counts as cell-based, Murine. The gist of the method:
as §1

Series [7] concerns NIH-3T3 fibroblast cells (non-tumor). The series can be described thus: Cell viability assay (MTT), dark and blue light. In kind it is cell-based, Murine. In outline:
as §1

Series [8] can be described thus: Emission lifetime measurement. It counts as physicochemical. In outline:
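Emission lifetimes measured by time-correlated single-photon counting (0.5 ns time resolution), excitation from a D2 lamp and a 405 nm pulsed diode laser. Estimated error 5% on lifetime.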

The nature of series [9]: Lipophilicity: octanol-water partition coefficient, shake-flask method. Particulars: n-octanol/water, shake-flask, mean of at least three determinations. The gist of the method:
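Octanol and water mutually pre-saturated for 24 h; compound ([…] stock in aqueous phase) partitioned against equal volume n-octanol, mixed 15 min, phases separated by centrifugation.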

For series [10] the following is noted: POPOP in hexane, rhodamine B in ethanol; cited from earlier work.

Where two headings read alike, the source gives them in different places.

Consider `COC(=O)c1ccc2[n+](c1)[Ir-3]13([c]4ccccc4-2)([c]2ccccc2-c2ccc(C(=O)OC)c[n+]21)[c]1n(CCCNC(=O)c2ccccc2SC/C=C(\C)CC/C=C(\C)CCC=C(C)C)cc[n+]1-c1cccc[n+]13.F[P-](F)(F)(F)(F)F` [II-e], for which the GI50 with T24 bladder cancer cells (8 h in the dark, blue light 458 nm 10 min, then dark up to 72 h, read-out: GI50 T24 Blue) is 260 nM; with T24 bladder cancer cells (in the dark, 72 h, read-out: GI50 T24 Dark), 2200 nM; in [1] (8 h in the dark, blue light 458 nm 10 min, then dark up to 72 h, read-out: GI50 ASPC-1 Blue), 1300 nM; in series [1] (in the dark, 72 h, read-out: GI50 ASPC-1 Dark) it was 5100 nM; in the series on A549 lung cancer cells (8 h in the dark, blue light 458 nm 10 min, then dark up to 72 h, read-out: GI50 A549 Blue), 690 nM; with A549 lung cancer cells (in the dark, 72 h, read-out: GI50 A549 Dark), 3800 nM. In addition, the GI50 in [2] (8 h in the dark, blue light 458 nm 10 min, then dark up to 72 h, read-out: GI50 MiaPaCa2 Blue) was 180 nM; in series [2] (in the dark, 72 h, read-out: GI50 MiaPaCa2 Dark), 2000 nM; in series [6] (8 h in the dark, blue light 458 nm 10 min, then dark up to 72 h, read-out: GI50 MC3T3 Blue), 10100 nM; in [6] (in the dark, 72 h, read-out: GI50 MC3T3 Dark), 11000 nM; in series [7] (8 h in the dark, blue light 458 nm 10 min, then dark up to 72 h, read-out: GI50 NIH-3T3 Blue) it was 5200 nM; in series [7] (in the dark, 72 h, read-out: GI50 NIH-3T3 Dark) it was 12000 nM. Also, the “SI (vs MC3T3) T24 Blue” value in the series with T24 bladder cancer cells (blue light 458 nm) was found to be 38.8. The “SI (vs NIH-3T3) T24 Blue” value in the series with T24 bladder cancer cells (blue light 458 nm) was 20.0. In addition, the “SI (vs MC3T3) T24 Dark” value with T24 bladder cancer cells (dark) is given as 5.0. Besides, the “SI (vs NIH-3T3) T24 Dark” value in the series on T24 bladder cancer cells (dark) is 5.5. Besides, the “Photosensitizing index (PI) T24” value in the series with T24 bladder cancer cells (dark vs blue light 458 nm) is recorded as 8.6. Further, in series [1] (blue light 458 nm), the “SI (vs MC3T3) ASPC-1 Blue” value stood at 7.9. Moreover, in series [1] (blue light 458 nm), the “SI (vs NIH-3T3) ASPC-1 Blue” value is listed as 4.1. For the same molecule, in [1] (dark), the “SI (vs MC3T3) ASPC-1 Dark” value is listed as 2.2. For the same molecule, in series [1] (dark), the “SI (vs NIH-3T3) ASPC-1 Dark” value is listed as 2.3. In addition, the “Photosensitizing index (PI) ASPC-1” value in series [1] (dark vs blue light 458 nm) is on record as 4.0. The “SI (vs MC3T3) A549 Blue” value with A549 lung cancer cells (blue light 458 nm) is listed as 14.6. The “SI (vs NIH-3T3) A549 Blue” value in the series with A549 lung cancer cells (blue light 458 nm) is 7.5. Besides, the “SI (vs MC3T3) A549 Dark” value with A549 lung cancer cells (dark) turned out to be 2.9. The “SI (vs NIH-3T3) A549 Dark” value in the series on A549 lung cancer cells (dark) turned out to be 3.2. In the series with A549 lung cancer cells (dark vs blue light 458 nm), the “Photosensitizing index (PI) A549” value came to 5.5. In addition, the “SI (vs MC3T3) MiaPaCa2 Blue” value in series [2] (blue light 458 nm) is recorded as 57.7. Further, the “SI (vs NIH-3T3) MiaPaCa2 Blue” value in series [2] (blue light 458 nm) is reported as 29.7. Moreover, the “SI (vs MC3T3) MiaPaCa2 Dark” value in series [2] (dark) turned out to be 5.6. Besides, in series [2] (dark), the “SI (vs NIH-3T3) MiaPaCa2 Dark” value is on record as 6.1. In addition, the “Photosensitizing index (PI) MiaPaCa2” value in series [2] (dark vs blue light 458 nm) is on record as 11.2. The “ΦP emission phosphorescence quantum yield” value in series [3] worked out at 4.6%. Moreover, in series [4], the “λmax (nm) ε (M^−1 · cm^−1)” value is listed as 310 (sh) (24540), 363 (sh) (5975), 432 (5280) nm (M^−1 · cm^−1). The “SI values, mean over cancer cells, dark” value in series [5] worked out at 4.1 fold. The “SI values, median over cancer cells, dark” value in series [5] is recorded as 4.1 fold. Moreover, the “Photosensitizing index (PI) MC3T3” value in series [6] (dark vs blue light 458 nm) is recorded as 1.1. In addition, the “Photosensitizing index (PI) NIH-3T3” value in series [7] (dark vs blue light 458 nm) worked out at 2.3. In addition, the τ1 emission lifetime in series [8] was found to be 182 ns. For the same molecule, in series [9], the log partition coefficient (Log P) is given as 1.30 ± 0.02.

In the case of `CCN(CC)c1ccc2c(-c3ccccc3C(=O)O)c3ccc(=[N+](CC)CC)cc-3oc2c1.[Cl-]` [rhodamine B], in [10], the “quantum yield of the reference standard” value is on record as 65%.

By GI50 is commonly meant the concentration at which growth is held to half of that of the control. The Log P is the decadic logarithm of the partition coefficient of the neutral form, usually between octanol and water. High values mean higher lipophilicity, low ones lower lipophilicity.
